For one assay, the target named is T1, VIM-1 (Pseudomonas aeruginosa, UniProt A0A0F7KYQ8).
T1 construct: made in house; host or cells: ECM6711 strain carrying pUCP24-VIM-1 plasmid; culture supernatant used unpurified
Description: biochemical. As to conditions: cleavage of nitrocefin (200 uM) by VIM-1 supernatant.

The target of assay [1] is T2, NDM-1 (Klebsiella pneumoniae, UniProt C7C422). Kind of assay: biochemical.
Assay [2] addresses T2, NDM-1. Kind of assay: Inhibition of purified class B carbapenemase NDM-1 (Ki, imipenem substrate). It is filed as biochemical. As to conditions: NDM-1, substrate imipenem; read-out: Ki NDM-1, Imipenem.
The target of assay [3] is T3, purified class A, C and D enzymes (UniProt Q9F663).
T3 construct: rows headed: Ki (KPC-2, NCF); other: purified KPC-2; nitrocefin reporter substrate
In kind it is biochemical. The following applies: read-out: Ki (KPC-2, NCF); purified KPC-2; nitrocefin reporter substrate.

Assay [4] addresses T4, purified class A, C and D enzymes (UniProt Q6XEC0).
T4 construct: rows headed: Ki (OXA-48, NCF); other: purified OXA-48; nitrocefin reporter substrate
In kind it is biochemical. As to conditions: read-out: Ki (OXA-48, NCF); purified OXA-48; nitrocefin reporter substrate.

The target in assay [5] is T5, purified class A, C and D enzymes (UniProt P0AD64, L31Q/G234S/E235K, species not given).
T5 construct: Ki (SHV-12, NCF); other: purified SHV-12; nitrocefin reporter substrate
T5 sequence (P0AD64 1-286 L31Q/G234S/E235K): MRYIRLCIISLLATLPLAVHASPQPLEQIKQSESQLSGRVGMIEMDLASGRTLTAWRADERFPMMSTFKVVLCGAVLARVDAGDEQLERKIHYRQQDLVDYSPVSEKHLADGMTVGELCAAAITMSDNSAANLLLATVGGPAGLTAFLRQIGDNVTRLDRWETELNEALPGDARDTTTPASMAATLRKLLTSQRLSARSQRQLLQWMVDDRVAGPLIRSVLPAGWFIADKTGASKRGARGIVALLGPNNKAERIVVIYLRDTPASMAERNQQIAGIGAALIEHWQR
In kind it is biochemical. As to conditions: read-out: Ki (SHV-12, NCF); purified SHV-12; nitrocefin reporter substrate.

In assay [6] the target is purified class A, C and D enzymes (Enterobacter cloacae, UniProt P05364). It is filed as biochemical. The following applies: purified P99/AmpC of ECL; nitrocefin reporter substrate.
Sequence of purified class A, C and D enzymes (Enterobacter cloacae, UniProt P05364) (P05364 21-381): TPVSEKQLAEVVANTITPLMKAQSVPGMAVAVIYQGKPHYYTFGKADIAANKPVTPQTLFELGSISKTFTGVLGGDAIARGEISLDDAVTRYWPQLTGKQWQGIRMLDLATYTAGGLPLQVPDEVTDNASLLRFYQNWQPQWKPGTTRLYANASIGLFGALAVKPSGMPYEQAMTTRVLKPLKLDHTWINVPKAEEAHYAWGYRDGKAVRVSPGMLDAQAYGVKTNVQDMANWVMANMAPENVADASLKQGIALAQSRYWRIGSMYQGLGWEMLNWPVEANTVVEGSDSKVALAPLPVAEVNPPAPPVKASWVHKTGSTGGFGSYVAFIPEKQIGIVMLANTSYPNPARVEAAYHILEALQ
Assay [7] deals with purified class A, C and D enzymes (Escherichia coli, UniProt Q9L5C7). It is filed as biochemical. As to conditions: purified CTX-M-14; nitrocefin reporter substrate.
Sequence of purified class A, C and D enzymes (Escherichia coli, UniProt Q9L5C7) (Q9L5C7 entry or part of it): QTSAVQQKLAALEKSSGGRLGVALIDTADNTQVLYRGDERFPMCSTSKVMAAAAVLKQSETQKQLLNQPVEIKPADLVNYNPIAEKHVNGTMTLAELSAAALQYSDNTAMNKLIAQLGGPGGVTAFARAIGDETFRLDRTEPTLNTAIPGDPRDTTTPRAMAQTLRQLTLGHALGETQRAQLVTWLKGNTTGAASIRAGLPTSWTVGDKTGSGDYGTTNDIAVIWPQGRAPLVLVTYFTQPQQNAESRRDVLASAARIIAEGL
Setting [8] is: cleavage of imipenem (100 uM) by NDM-1, read-out: Ki, Imipenem.

This note sets out measurements from patent publication US10206937B2, “Boronic acid derivatives and therapeutic uses thereof” (Qpex Biopharma, Inc., priority 2014, dated 2019).

Molecules are shown by their SMILES.

T2 sequence (C7C422 29-270, looked up, species assumed): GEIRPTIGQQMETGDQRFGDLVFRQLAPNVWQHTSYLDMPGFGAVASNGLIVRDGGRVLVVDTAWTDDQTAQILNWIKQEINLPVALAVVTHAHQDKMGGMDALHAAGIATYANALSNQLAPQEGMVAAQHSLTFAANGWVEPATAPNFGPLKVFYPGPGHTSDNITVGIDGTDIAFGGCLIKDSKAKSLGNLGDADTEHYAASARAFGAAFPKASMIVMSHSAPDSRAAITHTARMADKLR

Turning to `Cn1nnnc1S[C@H]1Cc2cccc(C(=O)O)c2OB1O` [Compound 5, (R)-2-hydroxy-3-(1-methyl-1H-tetrazol-5-ylthio)-3,4-dihydro-2H-benzo[e][1,2]oxaborinine-8-carboxylic acid], at VIM-1, the IC50 (commonly the concentration that gives 50% inhibition) was not below 1 µM. The Ki at NDM-1 [1] (setting [8]) and on NDM-1 [2] was 0.01 to 0.1 µM throughout.

For `O=C(O)c1cccc2c1OB(O)[C@@H](Sc1ccccc1)C2` [Compound 6, (R)-2-hydroxy-3-(phenylthio)-3,4-dihydro-2H-benzo[e][1,2]oxaborinine-8-carboxylic acid], on VIM-1, the IC50 is less than 1 µM. Also, the Ki on NDM-1 [1] (setting [8]) and on NDM-1 [2] was less than 0.01 µM in each case.

In the case of `O=C(O)c1cccc2c1OB(O)[C@@H](Sc1cccnc1)C2` [Compound 8, (R)-2-hydroxy-3-(pyridin-3-ylthio)-3,4-dihydro-2H-benzo[e][1,2]oxaborinine-8-carboxylic acid], the IC50 against VIM-1 is less than 1 µM. The inhibitory constant (Ki) on NDM-1 [1] (setting [8]) and at NDM-1 [2] was more than 0.1 µM throughout.

On VIM-1, `CC(=N)S[C@H]1Cc2cccc(C(=O)O)c2OB1O` [Compound 10, (R)-2-hydroxy-3-(1-iminoethylthio)-3,4-dihydro-2H-benzo[e][1,2]oxaborinine-8-carboxylic acid] returned a half-maximal inhibitory concentration (IC50) not below 1 µM. Further, the values for the Ki (in assay [3]; on NDM-1 [1] (setting [8]); on NDM-1 [2]) were 0.1 to 1 µM, 0.01 to 0.1 µM and 0.01 to 0.1 µM, respectively.

At VIM-1, `O=C(O)c1cccc2c1OB(O)[C@@H](Sc1c[nH]nn1)C2` [Compound 12, (R)-3-(1H-1,2,3-triazol-4-ylthio)-2-hydroxy-3,4-dihydro-2H-benzo[e][1,2]oxaborinine-8-carboxylic acid] displayed an IC50 of less than 1 µM. Also, the Ki (as a rule, the dissociation constant of the complex between target and ligand, obtained from inhibition or displacement) in assay [3] is 0.1 to 1 µM; at NDM-1 [1] (setting [8]), 0.01 to 0.1 µM; at NDM-1 [2], 0.01 to 0.1 µM.

`O=C(O)c1cccc2c1OB(O)[C@@H](OCc1ccccc1)C2` [Compound 13, (R)-3-(benzyloxy)-2-hydroxy-3,4-dihydro-2H-benzo[e][1,2]oxaborinine-8-carboxylic acid] came in with an IC50 at VIM-1 of less than 1 µM. The Ki on NDM-1 [1] (setting [8]) and on NDM-1 [2] was 0.01 to 0.1 µM in each case.

In turn, `CO[C@H]1Cc2cccc(C(=O)O)c2OB1O` [Compound 17, (R)-2-hydroxy-3-methoxy-3,4-dihydro-2H-benzo[e][1,2]oxaborinine-8-carboxylic acid] gave an IC50 at VIM-1 of less than 1 µM. Besides, the Ki in assay [4] was less than 0.1 µM; in assay [3] it was less than 0.1 µM; in assay [5], less than 0.1 µM; on NDM-1 [1] (cleavage of biapenem (100 uM) by NDM-1, read-out: Ki, Biapenem), 0.01 to 0.1 µM; at NDM-1 [1] (setting [8]), 0.01 to 0.1 µM; at NDM-1 [1] (cleavage of meropenem (100 uM) by NDM-1, read-out: Ki, Meropenem) it was 0.01 to 0.1 µM. Moreover, on NDM-1 [2], the Ki lay in the range of 0.01 to 0.1 µM.

For `CO[C@H]1Cc2ccc(F)c(C(=O)O)c2OB1O` [Compound 19, (R)-7-fluoro-2-hydroxy-3-methoxy-3,4-dihydro-2H-benzo[e][1,2]oxaborinine-8-carboxylic acid], on VIM-1, the IC50 is less than 1 µM. Further, the Ki in assay [4] was less than 0.1 µM; in assay [3], less than 0.1 µM; in assay [5], less than 0.1 µM; on NDM-1 [1] (setting [8]), less than 0.01 µM.

Regarding `Nn1cnnc1S[C@H]1Cc2ccc(F)c(C(=O)O)c2OB1O` [Compound 20, (R)-3-(4-amino-4H-1,2,4-triazol-3-ylthio)-7-fluoro-2-hydroxy-3,4-dihydro-2H-benzo[e][1,2]oxaborinine-8-carboxylic acid], the IC50 at VIM-1 is not below 1 µM. Moreover, the inhibition constant Ki in assay [4] was 0.1 to 1 µM; in assay [3], 0.1 to 1 µM; in assay [5], less than 0.1 µM; on NDM-1 [1] (setting [8]) it was less than 0.01 µM; on NDM-1 [2] it was less than 0.01 µM.

`Cn1cnnc1S[C@H]1Cc2ccc(F)c(C(=O)O)c2OB1O` [Compound 24, (R)-7-fluoro-2-hydroxy-3-(4-methyl-4H-1,2,4-triazol-3-ylthio)-3,4-dihydro-2H-benzo[e][1,2]oxaborinine-8-carboxylic acid] registered a concentration for half-maximal inhibition (IC50) at VIM-1 not below 1 µM. Further, the Ki was less than 0.1 µM in assay [4]; 0.1 to 1 µM in assay [3]; less than 0.1 µM in assay [5]; 0.01 to 0.1 µM on NDM-1 [1] (setting [8]); 0.01 to 0.1 µM at NDM-1 [2].

On to `CSc1ccc2c(c1C(=O)O)OB(O)[C@@H](Sc1nncn1N)C2` [Compound 25, (R)-3-(4-amino-4H-1,2,4-triazol-3-ylthio)-2-hydroxy-7-(methylthio)-3,4-dihydro-2H-benzo[e][1,2]oxaborinine-8-carboxylic acid], for which the IC50 against VIM-1 is less than 1 µM. Moreover, the Ki is less than 0.1 µM in assay [4]; 0.1 to 1 µM in assay [3]; less than 0.1 µM in assay [5]; less than 0.01 µM at NDM-1 [1] (setting [8]); less than 0.01 µM on NDM-1 [2].

For the molecule `COc1ccc2c(c1C(=O)O)OB(O)[C@@H](SC1CN(S(N)(=O)=O)C1)C2` [Compound 76, (3R)-2-hydroxy-7-methoxy-3-(1-sulfamoylazetidin-3-yl)sulfanyl-3,4-dihydro-1,2-benzoxaborinine-8-carboxylic acid], the IC50 on VIM-1 is not below 1 µM. Besides, the Ki in assay [4] was less than 0.1 µM; in assay [3], 0.1 to 1 µM; at NDM-1 [1] (setting [8]), more than 0.1 µM; on NDM-1 [2], more than 0.1 µM. Besides, the “Ki (P99/AmpC of ECL, NCF)” value in assay [6] was “Y (0.1 μM to 1 μM)”. Moreover, the “Ki (CTX-M-14, NCF)” value in assay [7] is “X (Less than 0.1 μM)”.

Turning to `O=C(O)c1c(OCC2CC2)ccc2c1OB(O)[C@@H](Sc1nncs1)C2` [Compound 92, (3R)-7-(cyclopropylmethoxy)-2-hydroxy-3-(1,3,4-thiadiazol-2-ylsulfanyl)-3,4-dihydro-1,2-benzoxaborinine-8-carboxylic acid], the IC50 against VIM-1 was less than 1 µM. Besides, the Ki in assay [4] is less than 0.1 µM; in assay [3], 0.1 to 1 µM; at NDM-1 [1] (setting [8]), 0.01 to 0.1 µM; on NDM-1 [2], 0.01 to 0.1 µM. The “Ki (P99/AmpC of ECL, NCF)” value in assay [6] is given as “Y (0.1 μM to 1 μM)”. The “Ki (CTX-M-14, NCF)” value in assay [7] was “X (Less than 0.1 μM)”.

Turning to `O=C(O)c1c(OCc2nncs2)ccc2c1OB(O)[C@@H](Sc1nncs1)C2` [Compound 93], on VIM-1, the IC50 was less than 1 µM. The Ki in assay [4] is less than 0.1 µM; in assay [3], 0.1 to 1 µM; on NDM-1 [1] (setting [8]) it was more than 0.1 µM; on NDM-1 [2] it was more than 0.1 µM. Moreover, the “Ki (P99/AmpC of ECL, NCF)” value in assay [6] is given as “Y (0.1 μM to 1 μM)”. Besides, the “Ki (CTX-M-14, NCF)” value in assay [7] is listed as “X (Less than 0.1 μM)”.

The molecule `O=C(O)c1c(OC(F)F)ccc2c1OB(O)[C@@H](Sc1nncs1)C2` [Compound 94, (3R)-7-(difluoromethoxy)-2-hydroxy-3-(1,3,4-thiadiazol-2-ylsulfanyl)-3,4-dihydro-1,2-benzoxaborinine-8-carboxylic acid] yielded an IC50 against VIM-1 of less than 1 µM. The Ki in assay [4] was less than 0.1 µM; in assay [3] it was 0.1 to 1 µM; at NDM-1 [1] (setting [8]), more than 0.1 µM; on NDM-1 [2], more than 0.1 µM. Besides, in assay [6], the “Ki (P99/AmpC of ECL, NCF)” value was “Z (Greater than 1 μM)”. In assay [7], the “Ki (CTX-M-14, NCF)” value was “X (Less than 0.1 μM)”.

As to `CSCCOc1ccc2c(c1C(=O)O)OB(O)[C@@H](Sc1nncs1)C2` [Compound 95, (3R)-2-hydroxy-7-(2-methylsulfanylethoxy)-3-(1,3,4-thiadiazol-2-ylsulfanyl)-3,4-dihydro-1,2-benzoxaborinine-8-carboxylic acid], the IC50 against VIM-1 is less than 1 µM. In addition, the Ki was less than 0.1 µM in assay [4], 0.1 to 1 µM in assay [3], 0.01 to 0.1 µM at NDM-1 [1] (setting [8]) and 0.01 to 0.1 µM at NDM-1 [2]. Besides, the “Ki (P99/AmpC of ECL, NCF)” value in assay [6] is reported as “Y (0.1 μM to 1 μM)”. Besides, in assay [7], the “Ki (CTX-M-14, NCF)” value is recorded as “X (Less than 0.1 μM)”.

`COc1ccc2c(c1C(=O)O)OB(O)[C@@H](Sc1nnc(NC(=N)N)s1)C2` [Compound 106, (3R)-3-[(5-guanidino-1,3,4-thiadiazol-2-yl)sulfanyl]-2-hydroxy-7-methoxy-3,4-dihydro-1,2-benzoxaborinine-8-carboxylic acid] came in with an IC50 against VIM-1 of less than 1 µM. The Ki is less than 0.1 µM in assay [4], 0.1 to 1 µM in assay [3], more than 0.1 µM on NDM-1 [1] (setting [8]) and more than 0.1 µM at NDM-1 [2]. Besides, the “Ki (P99/AmpC of ECL, NCF)” value in assay [6] is reported as “X (Less than 0.1 μM)”. The “Ki (CTX-M-14, NCF)” value in assay [7] was “X (Less than 0.1 μM)”.

`CS(=O)(=O)Nc1ccc2c(c1C(=O)O)OB(O)[C@@H](Sc1nnc(N)s1)C2` [Compound 120, (3R)-3-[(5-amino-1,3,4-thiadiazol-2-yl)sulfanyl]-2-hydroxy-7-(methanesulfonamido)-3,4-dihydro-1,2-benzoxaborinine-8-carboxylic acid]: the IC50 against VIM-1 is less than 1 µM. Also, the Ki in assay [4] is less than 0.1 µM; in assay [3], 0.1 to 1 µM; on NDM-1 [1] (setting [8]), less than 0.01 µM; on NDM-1 [2], less than 0.01 µM. Moreover, in assay [6], the “Ki (P99/AmpC of ECL, NCF)” value is “X (Less than 0.1 μM)”. Further, in assay [7], the “Ki (CTX-M-14, NCF)” value is “X (Less than 0.1 μM)”.
